Laboratory results taken from patent US20240239811A1, “5-(5-(PIPERIDIN-4-YL)THIENO[3,2-C]PYRAZOL-2-YL]INDAZOLE DERIVATIVES AND RELATED COMPOUNDS AS MODULATORS FOR SPLICING NUCLEIC ACIDS AND FOR THE T” (REMIX THERAPEUTICS INC., priority 2020, published 2024).
Structures can show the parent of a compound that is named as a salt.

Assays:
Format in all cases: cell-based
SMN2 CJ mRNA = experiment: Gene panel canonical junction qPCR assay, SMN2; conditions: Table 6, decrease in CJ mRNA, read-out: SMN2 IC50 (decrease in CJ mRNA levels)
In short: (§1)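 A673 or K562 cells treated 24 h at 37° C with 11-point 3-fold dilutions, top 10 uM, DMSO ≤0.25%. CJ mRNA quantified by RT-qPCR with exon-junction-spanning probeset, ΔΔCt vs housekeeping gene (GAPDH, GUSB or PPIA) and DMSO control. IC50 from 4-parameter fit of percentage CJ decrease.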

HTT mRNA = experiment: Splicing assay (RT-qPCR) monitoring HTT splice variants, canonical (CJ) and alternative (AJ) junction; conditions: 50% response, A673 or K562 cell line, 24 hours; for IC50: decrease in CJ mRNA; for AC50: increase in AJ mRNA
In short: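 A673 or K562 cells were treated 24 h with an 11-point 3-fold dilution series (top 10 uM, ≤0.25% DMSO) at 37 °C. HTT canonical- and alternative-junction mRNAs were quantified in lysates by one-step RT-qPCR. Values were normalized to PPIA (A673) or GAPDH/GUSB (K562).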

Target C CJ mRNA = experiment: Gene panel canonical junction qPCR assay, Target C; conditions: Table 6, decrease in CJ mRNA, read-out: Target C IC50 (decrease in CJ mRNA levels)
In short: as §1

HTT CJ mRNA = experiment: Gene panel canonical junction qPCR assay, HTT; conditions: Table 6, decrease in CJ mRNA, read-out: HTT IC50 (decrease in CJ mRNA levels)
In short: as §1

Row | IC50 (SMN2 CJ mRNA) | IC50 (HTT mRNA) | IC50 (Target C CJ mRNA) | IC50 (HTT CJ mRNA) | SMILES | AC50 (HTT mRNA)
1 | 1000 to 10000 nM | > 10000 nM | > 10000 nM | > 10000 nM | Cn1cc2c(F)cc(-n3cc4cc(C5CCNCC5)sc4n3)cc2n1 [Compound 174] | > 10000 nM
2 | > 10000 nM | > 10000 nM | > 10000 nM | > 10000 nM | c1n[nH]cc1-n1cc2sc(C3CCNCC3)cc2n1 [Compound 176] | > 10000 nM
3 | > 10000 nM | > 10000 nM | > 10000 nM | > 10000 nM | Cn1cc2cc(-c3cc4cn(C5=CCOCC5)nc4s3)cc(F)c2n1 [Compound 177] | > 10000 nM
4 | 1000 to 10000 nM | 1000 to 10000 nM | 1000 to 10000 nM | 1000 to 10000 nM | Cn1cc2cc(-n3cc4sc(C5CCNCC5)cc4n3)c(O)cc2n1 [Compound 178] | 1000 to 10000 nM
5 | > 10000 nM | > 10000 nM | > 10000 nM | > 10000 nM | c1n[nH]cc1-n1cc2cc(C3CCNCC3)sc2n1 [Compound 180] | > 10000 nM
6 | 1000 to 10000 nM | 1000 to 10000 nM | > 10000 nM | 1000 to 10000 nM | Cc1cn2cc(-n3cc4sc(C5CCNCC5)cc4n3)nc2c(C)n1 [Compound 181] | 1000 to 10000 nM
7 | 100 to 1000 nM | 1000 to 10000 nM | > 10000 nM | 1000 to 10000 nM | Cn1cc2cc(-c3cc4cn(C5CNC5)nc4s3)cc(F)c2n1 [Compound 184] | 1000 to 10000 nM
8 | < 100 nM | < 100 nM | 100 to 1000 nM | < 100 nM | Cn1cc2cc(-c3cc4cn([C@@H]5CCNC[C@H]5F)nc4s3)cc(F)c2n1 [Compound 187] | < 100 nM
9 | 100 to 1000 nM | 100 to 1000 nM | 1000 to 10000 nM | 100 to 1000 nM | Cc1cn2nc(-n3cc4sc(N5CC6(CN(C)C6)C5)cc4n3)cc(C)c2n1 [Compound 188, 2-(2-{2,8-dimethylimidazo[1,2-b]pyridazin-6-yl}thieno [3,2-c]pyrazol-5-yl)-6-methyl-2,6-diazaspiro [3.3] heptane] | 1000 to 10000 nM
10 | 1000 to 10000 nM | > 10000 nM | > 10000 nM | > 10000 nM | Cc1cn2nc(-n3cc4sc(N5CCC(NC(C)(C)C)C5)cc4n3)cc(C)c2n1 (centres unmarked) [Compound 189, N-tert-butyl-1-(2-{2,8-dimethylimidazo[1,2-b]pyridazin-6-yl}thieno[3,2-c]pyrazol-5-yl) pyrrolidin-3-amine] | > 10000 nM
11 | < 100 nM | < 100 nM | < 100 nM | < 100 nM | C[C@@H]1C[C@H](c2cc3sc(-c4cc(F)c5nn(C)cc5c4)nc3s2)CCN1 [Compound 192, 7-fluoro-2-methyl-5-[5-(2-methylpiperidin-4-yl)thieno[2,3-d][1,3]thiazol-2-yl]indazole] | < 100 nM
12 | < 100 nM | < 100 nM | < 100 nM | < 100 nM | C[C@@H]1C[C@@H](c2cc3sc(-c4cc(F)c5nn(C)cc5c4)nc3s2)CCN1 [Compound 193, 7-fluoro-2-methyl-5-[5-(2-methylpiperidin-4-yl)thieno[2,3-d][1,3]thiazol-2-yl]indazole] | < 100 nM
13 | 100 to 1000 nM | 100 to 1000 nM | 100 to 1000 nM | 100 to 1000 nM | Cc1cn2nc(-c3nc4sc(C5=CCOCC5)cc4s3)cc(C)c2n1 [Compound 195, 6-[5-(3,6-dihydro-2H-pyran-4-yl)thieno[2,3-d][1,3]thiazol-2-yl]-2,8-dimethylimidazo[1,2-b]pyridazine] | 100 to 1000 nM
14 | 1000 to 10000 nM | 1000 to 10000 nM | 1000 to 10000 nM | 1000 to 10000 nM | Cc1cn2nc(-c3nc4sc(C5CCOCC5)cc4s3)cc(C)c2n1 [Compound 196, 2,8-dimethyl-6-[5-(oxan-4-yl)thieno[2,3-d][1,3]thiazol-2-yl]imidazo[1,2-b]pyridazine] | 1000 to 10000 nM
15 | 100 to 1000 nM | 100 to 1000 nM | 1000 to 10000 nM | 100 to 1000 nM | Cc1cn2nc(-c3nc4sc(C5CCNC5)cc4s3)cc(C)c2n1 (centres unmarked) [Compound 197, 3-(2-{2,8-dimethylimidazo[1,2-b]pyridazin-6-yl}thieno [2,3-d][1,3]thiazol-5-yl)pyrrolidine] | 100 to 1000 nM
16 | 1000 to 10000 nM | > 10000 nM | > 10000 nM | > 10000 nM | Cn1cc2cc(-c3nc4sc(N5CCC56CCNC6)cc4s3)cc(F)c2n1 (centres unmarked) [Compound 200, 5-(5-{1,6-diazaspiro[3.4]octan-1-yl}thieno[2,3-d][1,3]thiazol-2-yl)-7-fluoro-2-methy-lindazole] | > 10000 nM
17 | > 10000 nM | > 10000 nM | > 10000 nM | > 10000 nM | Cn1cc2cc(-c3nc4sc(N5CCC56CCNCC6)cc4s3)cc(F)c2n1 [Compound 201, 1-[2-(7-fluoro-2-methylindazol-5-yl)thieno[2,3-d] [1,3]thiazol-5-yl]-1,7-diazaspiro[3.5]nonane] | > 10000 nM
18 | 1000 to 10000 nM | > 10000 nM | 1000 to 10000 nM | > 10000 nM | Cn1cc2cc(-c3nc4sc(N5CCC56CCCNC6)cc4s3)cc(F)c2n1 (centres unmarked) [Compound 202, 1-[2-(7-fluoro-2-methylindazol-5-yl)thieno[2,3-d][1,3]thiazol-5-yl]-1,6-diazaspiro[3.5]nonane] | > 10000 nM
19 | 1000 to 10000 nM | > 10000 nM | > 10000 nM | > 10000 nM | CN1CCCC2(CCN2c2cc3sc(-c4cc(F)c5nn(C)cc5c4)nc3s2)C1 (centres unmarked) [Compound 203, 1-[2-(7-fluoro-2-methylindazol-5-yl)thieno[2,3-d][1,3]thiazol-5-yl]-6-methyl-1,6-diazaspiro[3.5]nonane] | > 10000 nM
20 | 1000 to 10000 nM | 1000 to 10000 nM | 1000 to 10000 nM | 1000 to 10000 nM | CN1CCC2(CC1)CCN2c1cc2sc(-c3cc(F)c4nn(C)cc4c3)nc2s1 [Compound 204, 1-[2-(7-fluoro-2-methylindazol-5-yl)thieno[2,3-d][1,3]thiazol-5-yl]-7-methyl-1,7-diazaspiro [3.5]nonane] | 1000 to 10000 nM
21 | 1000 to 10000 nM | 1000 to 10000 nM | 1000 to 10000 nM | 1000 to 10000 nM | Cc1cn2cc(-c3nc4sc(C5CCNCC5)cc4s3)ncc2n1 [Compound 205, 4-(2-{2-methylimidazo[1,2-a]pyrazin-6-yl}thieno[2,3-d][1,3]thiazol-5-yl)piperidine] | 1000 to 10000 nM
22 | < 100 nM | < 100 nM | 100 to 1000 nM | < 100 nM | Cn1cc2cc(-c3nc4sc(C5CCNCC5)cc4s3)c(O)c(F)c2n1 [Compound 206, 7-fluoro-2-methyl-5-[5-(piperidin-4-yl)thieno[2,3-d][1,3]thiazol-2-yl]indazol-6-ol] | < 100 nM
23 | < 100 nM | 100 to 1000 nM | 1000 to 10000 nM | 100 to 1000 nM | Cn1cc2cc(-c3cc4cn(C5CCNCC5)nc4s3)ccc2n1 [Compound 207] | 100 to 1000 nM
24 | < 100 nM | 100 to 1000 nM | 100 to 1000 nM | 100 to 1000 nM | COc1cc2nn(C)cc2cc1-c1cc2cn(C3CCNCC3)nc2s1 [Compound 208] | 100 to 1000 nM
25 | 100 to 1000 nM | 100 to 1000 nM | 1000 to 10000 nM | 100 to 1000 nM | Cn1cc2cc(-c3cc4cn(C5CCNCC5)nc4s3)c(O)cc2n1 [Compound 209, 2-methyl-5-[2-(piperidin-4-yl)thieno[2,3-c]pyrazol-5-yl]indazol-6-ol] | 1000 to 10000 nM
26 | < 100 nM | < 100 nM | 100 to 1000 nM | < 100 nM | Cn1cc2cc(-c3cc4cn(C5CCNCC5)nc4s3)c(F)cc2n1 [Compound 210] | < 100 nM
27 | 100 to 1000 nM | 1000 to 10000 nM | 1000 to 10000 nM | 1000 to 10000 nM | Cn1cc2cc(-c3cc4cn(C5CCNCC5)nc4s3)c(C#N)cc2n1 [Compound 211] | 1000 to 10000 nM
28 | 1000 to 10000 nM | 1000 to 10000 nM | > 10000 nM | 1000 to 10000 nM | Cc1cn2nc(-c3cc4cn(C5CCNCC5)nc4s3)c(O)c2c(C)n1 [Compound 213, 4,6-dimethyl-2-[2-(piperidin-4-yl)thieno[2,3-c]pyrazol-5-yl]pyrazolo[1,5-a]pyrazin-3-ol hydrochloride] | 1000 to 10000 nM
29 | 100 to 1000 nM | 1000 to 10000 nM | 1000 to 10000 nM | 1000 to 10000 nM | Cn1cc2cc(-c3cc4cn(C5CCNCC5)nc4s3)ncc2n1 [Compound 214] | 100 to 1000 nM

Row | SMILES | IC50 (SMN2 CJ mRNA) | IC50 (HTT mRNA) | IC50 (Target C CJ mRNA) | IC50 (HTT CJ mRNA) | AC50 (HTT mRNA)
30 | CN(c1cc2sc(-c3ccc(-c4cn[nH]c4)cc3O)nc2s1)[C@@H]1C[C@H]2CC[C@@H](C1)N2 [Compound 191, 2-{5-[(1R,3R,5S)-8-azabicyclo[3.2.1]octan-3-yl(methyl)amino]thieno[2,3-d][1,3]-thiazol-2-yl}-5-(1H-pyrazol-4-yl)phenol] | > 10000 nM | > 10000 nM | > 10000 nM | > 10000 nM | > 10000 nM
31 | Cc1cn2nc(-c3nc4sc(C5=CCNCC5)cc4s3)cc(C)c2n1 [Compound 198, 4-(2-{2,8-dimethylimidazo[1,2-b]pyridazin-6-yl}thieno[2,3-d][1,3]thiazol-5-yl)-1,2,3,6-tetrahydropyridine] | < 100 nM | < 100 nM | 1000 to 10000 nM | < 100 nM | 100 to 1000 nM
